Results: patent US8937072B2, “Substituted cyanoaniline compounds, preparation and use thereof” (Sinochem Corporation, priority 2011, dated 2015)
Where “and” joins values, the source holds several entries; their conditions need not be identical. Equal entries are not always repeated.

Tested on: cucumber downy mildew
Experiment: Protectant activity in vivo (whole plant) against cucumber downy mildew
Method: The method is as followed: The whole plant is used in this test. The compound is dissolved in a proper solvent to get mother solution. The proper solvent is selected from acetone, methanol, DMF and so on according to their dissolving capability to the sample. The volume rate of solvent and testing solution (v/v) is equal to or less than 5%. The mother solution is diluted with water containing 0.1% tween-80 to get the testing solution whose concentration is designed. The testing solution is sprayed to the host plant by a special plant sprayer. The plant is inoculated with fungus after 24 hours. According to the infecting characteristic of fungus, the plant is stored in a humidity chamber and then transferred into greenhouse after infection is finished. And the other plants are placed in greenhouse directly. The activity of compound is obtained by eyeballing after 7 days in common.

| Structure (SMILES) | protectant activity against cucumber downy mildew in vivo (dose 400 mg/L) [%] | also measured |
| --- | --- | --- |
| COC(=O)c1ccc(Nc2c(Cl)c(Cl)c(C#N)c(C#N)c2Cl)cc1 [Compound A-11] | 100 | – |
| N#Cc1c(Cl)c(Cl)c(Nc2ccc([N+](=O)[O-])cc2F)c(Cl)c1C#N [Compound A-14] | 100 | protectant activity against cucumber downy mildew in vivo (dose 25 mg/L): 100%; protectant activity against cucumber downy mildew in vivo (dose 50 mg/L): 100%; protectant activity against cucumber downy mildew in vivo (dose 100 mg/L): 100% |
| N#Cc1c(Cl)c(Cl)c(Nc2cc([N+](=O)[O-])ccc2Cl)c(Cl)c1C#N [Compound A-16] | 100 | – |
| N#Cc1c(Cl)c(Cl)c(Nc2ccc(C(F)(F)F)cc2Cl)c(Cl)c1C#N [Compound A-17] | 100 | – |
| N#Cc1ccc(Nc2c(Cl)c(Cl)c(C#N)c(C#N)c2Cl)cc1C(F)(F)F [Compound A-27] | 100 | – |
| N#Cc1c(Cl)c(Cl)c(Nc2ccc(F)c(F)c2F)c(Cl)c1C#N [Compound A-41] | 100 | – |
| N#Cc1c(Cl)c(Cl)c(Nc2c(Cl)cc([N+](=O)[O-])cc2Cl)c(Cl)c1C#N [Compound A-44] | 100 | protectant activity against cucumber downy mildew in vivo (dose 100 mg/L): 100% |
| N#Cc1c(Cl)c(Cl)c(Nc2c(Br)cc([N+](=O)[O-])cc2Br)c(Cl)c1C#N [Compound A-45] | 100 | protectant activity against cucumber downy mildew in vivo (dose 25 mg/L): 100%; protectant activity against cucumber downy mildew in vivo (dose 50 mg/L): 100%; protectant activity against cucumber downy mildew in vivo (dose 100 mg/L): 100% |
| Cc1c(Cl)c([N+](=O)[O-])cc([N+](=O)[O-])c1Nc1c(Cl)c(Cl)c(C#N)c(C#N)c1Cl [Compound A-61] | 100 | – |
| N#Cc1c(Cl)c(Cl)c(Nc2ccc(Br)cn2)c(Cl)c1C#N [Compound A-79] | 100 | protectant activity against cucumber downy mildew in vivo (dose 100 mg/L): 100% |
| Cc1ccnc(Nc2c(Cl)c(Cl)c(C#N)c(C#N)c2Cl)c1 [Compound A-80] | 100 | protectant activity against cucumber downy mildew in vivo (dose 100 mg/L): 100% |
| Cc1ccc(Nc2c(Cl)c(Cl)c(C#N)c(C#N)c2Cl)nc1 [Compound A-81] | 100 | – |
| N#Cc1ccc(Nc2c(Cl)c(Cl)c(C#N)c(Cl)c2C#N)cc1 [Compound B-10] | 100 | – |
| N#Cc1c(Cl)c(Cl)c(Nc2ccc(OC(F)(F)F)cc2)c(C#N)c1Cl [Compound B-12] | 100 | – |
| COC(=O)c1ccc(Nc2c(Cl)c(Cl)c(C#N)c(Cl)c2C#N)cc1 [Compound B-13] | 100 | – |
| N#Cc1c(Cl)c(Cl)c(Nc2cccc(Cl)c2Cl)c(C#N)c1Cl [Compound B-16] | 100 | – |
| Cc1cc(Cl)ccc1Nc1c(Cl)c(Cl)c(C#N)c(Cl)c1C#N [Compound B-22] | 100 | – |
| Cc1cccc(Cl)c1Nc1c(Cl)c(Cl)c(C#N)c(Cl)c1C#N [Compound B-23] | 100 | – |
| N#Cc1c(Cl)c(Cl)c(Nc2ccc([N+](=O)[O-])cc2[N+](=O)[O-])c(C#N)c1Cl [Compound B-37] | 100 | – |
| N#Cc1ccc(Nc2c(Cl)c(Cl)c(C#N)c(Cl)c2C#N)cc1C(F)(F)F [Compound B-40] | 100 | the protectant activity (%) against cucumber downy mildew (12.5 mg/L): 30%; the protectant activity (%) against cucumber downy mildew (25 mg/L): 98%; the protectant activity (%) against cucumber downy mildew (50 mg/L): 100%; the protectant activity (%) against cucumber downy mildew (100 mg/L): 100%; protectant activity against cucumber downy mildew in vivo (dose 50 mg/L): 100%; protectant activity against cucumber downy mildew in vivo (dose 100 mg/L): 100% |

| Structure (SMILES) | protectant activity against cucumber downy mildew in vivo (dose 400 mg/L) [%] | also measured |
| --- | --- | --- |
| CNC(=O)c1cc(Cl)cc(C)c1Nc1c(Cl)c(Cl)c(C#N)c(Cl)c1C#N [Compound B-62b] | 100 | – |
| N#Cc1c(F)c(F)c(Nc2ccc([N+](=O)[O-])cc2Cl)c(C#N)c1F [Compound B-95] | 100 | – |
| N#Cc1c(F)c(F)c(Nc2c(Cl)cc([N+](=O)[O-])cc2Cl)c(C#N)c1F [Compound B-109] | 100 | protectant activity against cucumber downy mildew in vivo (dose 50 mg/L): 100%; protectant activity against cucumber downy mildew in vivo (dose 100 mg/L): 100% |
| N#Cc1c(F)c(F)c(Nc2c(Br)cc([N+](=O)[O-])cc2Br)c(C#N)c1F [Compound B-115] | 100 | – |
| N#Cc1cc([N+](=O)[O-])cc(Br)c1Nc1c(F)c(F)c(C#N)c(F)c1C#N [Compound B-116] | 100 | – |
| N#Cc1c(Cl)c(Cl)c(Nc2ncc(C(F)(F)F)cc2Cl)c(C#N)c1Cl [Compound B-125] | 100 | protectant activity against cucumber downy mildew in vivo (dose 50 mg/L): 98%; protectant activity against cucumber downy mildew in vivo (dose 100 mg/L): 100% |
| N#Cc1c(Cl)c(Cl)c(Nc2c(Cl)cncc2Cl)c(C#N)c1Cl [Compound B-139] | 100 | the protectant activity (%) against cucumber downy mildew (12.5 mg/L): 100%; the protectant activity (%) against cucumber downy mildew (25 mg/L): 98%; the protectant activity (%) against cucumber downy mildew (50 mg/L): 98%; the protectant activity (%) against cucumber downy mildew (100 mg/L): 100%; protectant activity against cucumber downy mildew in vivo (dose 12.5 mg/L): 98%; protectant activity against cucumber downy mildew in vivo (dose 50 mg/L): 98%; protectant activity against cucumber downy mildew in vivo (dose 100 mg/L): 100% |
| N#Cc1ccc(Nc2c(Cl)c(C#N)c(Cl)c(Cl)c2C#N)cc1 [Compound C-12] | 100 | – |
| N#Cc1c(Cl)c(Cl)c(C#N)c(Nc2ccc(OC(F)(F)F)cc2)c1Cl [Compound C-13] | 100 | – |
| N#Cc1c(Cl)c(Cl)c(C#N)c(Nc2ccc([N+](=O)[O-])cc2Cl)c1Cl [Compound C-28] | 100 | – |
| N#Cc1c(Cl)c(Cl)c(C#N)c(Nc2ccc(C(F)(F)F)cc2Cl)c1Cl [Compound C-30] | 100 | protectant activity against cucumber downy mildew in vivo (dose 100 mg/L): 90% |
| N#Cc1c(Cl)c(Cl)c(C#N)c(Nc2cc(C(F)(F)F)ccc2Cl)c1Cl [Compound C-32] | 100 | – |
| COc1cc([N+](=O)[O-])ccc1Nc1c(Cl)c(C#N)c(Cl)c(Cl)c1C#N [Compound C-35] | 100 | – |
| N#Cc1ccc(Nc2c(Cl)c(C#N)c(Cl)c(Cl)c2C#N)cc1C(F)(F)F [Compound C-38] | 100 | protectant activity against cucumber downy mildew in vivo (dose 100 mg/L): 100% and 90% |
| N#Cc1c(Cl)c(Cl)c(C#N)c(Nc2ccc(F)c(F)c2F)c1Cl [Compound C-51] | 100 | – |
| CNC(=O)c1cc(Cl)cc(C)c1Nc1c(Cl)c(C#N)c(Cl)c(Cl)c1C#N [Compound C-56] | 100 | – |
| N#Cc1c(F)c(F)c(C#N)c(Nc2ccc([N+](=O)[O-])cc2)c1F [Compound C-70] | 100 | – |
| N#Cc1c(F)c(F)c(C#N)c(Nc2ccc([N+](=O)[O-])cc2F)c1F [Compound C-79] | 100 | – |
| N#Cc1c(F)c(F)c(C#N)c(Nc2cc([N+](=O)[O-])ccc2Cl)c1F [Compound C-81] | 100 | – |
| COc1cc([N+](=O)[O-])ccc1Nc1c(F)c(C#N)c(F)c(F)c1C#N [Compound C-88] | – | protectant activity against cucumber downy mildew in vivo (dose 50 mg/L): 98% |
